≈ marks a conversion by molar mass, not a printed value. Where “and” joins values, the source holds several entries; their conditions need not be identical. Identical values can stand only once. Like-named read-outs stand apart in the source and are kept apart here.
Experiments:
[1] = system: S. aureus ATCC 25923 (Sa 23); test: MIC, broth microdilution, Sa 23; assay type: cell-based; conditions: for MIC: Staphylococcus aureus
Protocol: (§1) The broth microdilution method was utilized to determine MIC values of novel thiazole derivatives against different clinically important Gram-positive bacteria according to the guidelines outlined by the Clinical and Laboratory Standards Institute (CLSI) as reported in our recent papers.^1-5 The starting concentration of compounds for MIC determination was 64 μg/mL serially diluted down the wells and the MIC values were recorded in duplicates in three independent experiments on different days.

[2] = system: S. aureus ATCC 33592 (Sa 92); test: MIC, broth microdilution, Sa 92; assay type: cell-based; conditions: Staphylococcus aureus
Protocol: as §1

[3] = system: S. aureus subsp. aureus Rosenbach ATCC 25904 (SA Newman); test: MIC, broth microdilution, SA Newman; assay type: cell-based; conditions: for MIC: Staphylococcus aureus, read-out: Minimum inhibitory concentration (MIC) Sa Newman
Protocol: as §1

[4] = system: Sa UAMS-1 MRSA ATCC 49230 (Sa UAMS); test: MIC, broth microdilution, Sa UAMS; assay type: cell-based, S. aureus; conditions: Staphylococcus aureus
Protocol: as §1

[5] = system: E. faecalis ATCC 29212 (Efs 12); test: MIC, broth microdilution, Efs 12; assay type: cell-based; conditions: for MIC: Enterococcus faecalis; for Minimum inhibitory concentration (MIC) Efs 12: Table 1, HT series
Protocol: as §1

[6] = system: S. aureus ATCC 33591 (Sa 91); test: MIC, broth microdilution, Sa 91; assay type: cell-based; conditions: for MIC: Staphylococcus aureus
Protocol: as §1

[7] = system: S. aureus subsp. aureus Rosenbach BAA-1717 (Sa USA 300); test: MIC, broth microdilution, Sa USA 300; assay type: cell-based; conditions: Staphylococcus aureus, read-out: Minimum inhibitory concentration (MIC) Sa USA 300
Protocol: as §1

[8] = system: S. aureus ATCC BAA-2312 (Sa 12); test: MIC, broth microdilution, Sa 12; assay type: cell-based; conditions: Staphylococcus aureus
Protocol: as §1

[9] = system: S. epidermidis ATCC 700296 (Se); test: MIC, broth microdilution, Se; assay type: cell-based; conditions: Staphylococcus epidermidis, ATCC700296, read-out: Minimum inhibitory concentration (MIC) Se
Protocol: as §1

[10] = system: S. aureus LAC MRSA (Sa LAC); test: MIC, broth microdilution, Sa LAC; assay type: cell-based; conditions: Staphylococcus aureus, read-out: Minimum inhibitory concentration (MIC) Sa LAC
Protocol: as §1

[11] = system: S. aureus ATCC 700699 (Sa 99); test: MIC, broth microdilution, Sa 99; assay type: cell-based; conditions: for MIC: Staphylococcus aureus; for Minimum inhibitory concentration (MIC) Sa 99: Table 1, HT series
Protocol: as §1

[12] = ATCC25923, Table 1, HT series, replicates from different days separated by comma, read-out: Minimum inhibitory concentration (MIC) Sa 23
[13] = Table 1, HT series, replicates from different days separated by comma
[14] = ATCC33592, Table 1, HT series, read-out: Minimum inhibitory concentration (MIC) Sa 92
[15] = Table 1, HT series, read-out: Minimum inhibitory concentration (MIC) Sa UAMS
[16] = ATCC29212, Table 1, HT series, replicates from different days separated by comma, read-out: Minimum inhibitory concentration (MIC) Efs 12
[17] = replicates from different days separated by comma
[18] = ATCC33591, Table 1, HT series, read-out: Minimum inhibitory concentration (MIC) Sa 91
[19] = ATCCBAA2312, Table 1, HT series, read-out: Minimum inhibitory concentration (MIC) Sa 12
[20] = ATCC700699, Table 1, HT series, replicates from different days separated by comma, read-out: Minimum inhibitory concentration (MIC) Sa 99

| MIC [1, 12] [µg/mL] | Minimum inhibitory concentration (MIC) Sa 23 [1, 13] | MIC [2, 14] [µg/mL] | MIC ([3]; Table 1, HT series) [µg/mL] | MIC [4, 15] [µg/mL] | MIC [5, 16] [µg/mL] | Minimum inhibitory concentration (MIC) Efs 12 [5, 17] | MIC [6, 18] [µg/mL] | MIC [8, 19] [µg/mL] | MIC ([10]; Table 1, HT series) [µg/mL] | MIC [11, 20] [µg/mL] | Minimum inhibitory concentration (MIC) Sa 99 [11, 17] | Structure (SMILES) | also measured |
| --- | --- | --- | --- | --- | --- | --- | --- | --- | --- | --- | --- | --- | --- |
| – | – | – | – | – | – | – | – | – | – | – | – | CN[C@H](CC(C)C)C(=O)N[C@H]1C(=O)N[C@@H](CC(N)=O)C(=O)N[C@H]2C(=O)N[C@H]3C(=O)N[C@H](C(=O)N[C@H](C(=O)O)c4cc(O)cc(O)c4-c4cc3ccc4O)[C@H](O)c3ccc(c(Cl)c3)Oc3cc2cc(c3O[C@@H]2O[C@H](CO)[C@@H](O)[C@H](O)[C@H]2O[C@H]2C[C@](C)(N)[C@H](O)[C@H](C)O2)Oc2ccc(cc2Cl)[C@H]1O [Vanc., Vancomycin, reference compound] | MIC ([1]; ATCC25923, read-out: Minimum inhibitory concentration (MIC) Sa 23): 1 µg/mL (≈ 0.69 µM); Minimum inhibitory concentration (MIC) Sa 23 ([1]; Table 2, HTM series): 1 µg/mL (≈ 0.69 µM); MIC ([2]; ATCC33592, read-out: Minimum inhibitory concentration (MIC) Sa 92, Table 1, HT series): 1 µg/mL (≈ 0.69 µM); MIC ([2]; ATCC33592, read-out: Minimum inhibitory concentration (MIC) Sa 92, Table 2, HTM series): 2 µg/mL (≈ 1.38 µM); MIC [3]: 2 µg/mL (≈ 1.38 µM); Minimum inhibitory concentration (MIC) Sa Newman ([3]; Table 2, HTM series): 2 µg/mL (≈ 1.38 µM); MIC ([4]; read-out: Minimum inhibitory concentration (MIC) Sa UAMS): 2 µg/mL (≈ 1.38 µM); MIC ([4]; read-out: Minimum inhibitory concentration (MIC) Sa UAMS-1): 1 µg/mL (≈ 0.69 µM); MIC ([5]; ATCC29212, read-out: Minimum inhibitory concentration (MIC) Efs 12, Table 1, HT series, replicates from different days separated by comma): 2 µg/mL (≈ 1.38 µM); MIC ([5]; ATCC29212, read-out: Minimum inhibitory concentration (MIC) Efs 12, Table 2, HTM series): 4 µg/mL (≈ 2.76 µM); MIC ([6]; ATCC33591, read-out: Minimum inhibitory concentration (MIC) Sa 91): 2 µg/mL (≈ 1.38 µM); Minimum inhibitory concentration (MIC) Sa 91 ([6]; Table 2, HTM series): 2 µg/mL (≈ 1.38 µM); MIC [7]: 1 µg/mL (≈ 0.69 µM); MIC ([8]; ATCCBAA2312, read-out: Minimum inhibitory concentration (MIC) Sa 12, Table 1, HT series): 1 µg/mL (≈ 0.69 µM); MIC ([8]; ATCCBAA2312, read-out: Minimum inhibitory concentration (MIC) Sa 12, Table 2, HTM series): 0.5 µg/mL (≈ 0.345 µM); MIC [9]: 2 µg/mL (≈ 1.38 µM); MIC [10]: 1 µg/mL (≈ 0.69 µM); MIC ([11]; ATCC700699, read-out: Minimum inhibitory concentration (MIC) Sa 99, Table 1, HT series, replicates from different days separated by comma): 2 µg/mL (≈ 1.38 µM); MIC ([11]; ATCC700699, read-out: Minimum inhibitory concentration (MIC) Sa 99, Table 2, HTM series): 4 µg/mL (≈ 2.76 µM) |
| 2 (≈ 6.58 µM) | 2, 2, 2 μg/mL | 8 (≈ 26.3 µM) | 4 (≈ 13.2 µM) | 8 (≈ 26.3 µM) | 16 (≈ 52.7 µM) | 8 µg/mL and 16 µg/mL | 4 (≈ 13.2 µM) | 8 (≈ 26.3 µM) | 8 (≈ 26.3 µM) | 4 (≈ 13.2 µM) | 4, 4, 4 μg/mL | Oc1ccc(-c2nc(-c3cccc(Cl)c3)cs2)cc1O [Compound 3, 4-(4-(3-chlorophenyl)thiazol-2-yl)benzene-1,2-diol] | – |
| 16 (≈ 56.1 µM) | 16, 16, 16 μg/mL | 32 (≈ 112 µM) | 16 (≈ 56.1 µM) | 32 (≈ 112 µM) | > 32 | >32, >32, >32 μg/mL | 32 (≈ 112 µM) | 16 (≈ 56.1 µM) | 16 (≈ 56.1 µM) | 16 (≈ 56.1 µM) | 8 µg/mL (≈ 28 µM) | Oc1ccc(-c2csc(-c3ccc(O)c(O)c3)n2)cc1 [Compound 8, 4-(4-(4-hydroxyphenyl)thiazol-2-yl)benzene-1,2-diol] | – |
| 2 (≈ 5.91 µM) | 2, 2, 2 μg/mL | 8 (≈ 23.7 µM) | 4 (≈ 11.8 µM) | 8 (≈ 23.7 µM) | – | 16 µg/mL and 2 µg/mL and 8 µg/mL | 4 (≈ 11.8 µM) | 8 (≈ 23.7 µM) | 8 (≈ 23.7 µM) | 2 (≈ 5.91 µM) | 2, 2, 2 μg/mL | Oc1ccc(-c2nc(-c3ccc(Cl)cc3Cl)cs2)cc1O [Compound 6, 4-(4-(2,4-dichlorophenyl)thiazol-2-yl)benzene-1,2-diol] | – |

From patent US20250270199A1, “THIAZOLE DERIVATIVES AND METHODS OF USING THE SAME” (Arkansas State University - Jonesboro, priority 2022, published 2025)
